Patent publication US11793782B2, “Therapeutic agents for neurodegenerative diseases” (priority 2017, dated 2023)

Test system: ataxia telangiectasia patients
Assay: Case studies, ataxia telangiectasia patients (SARA, SCAFI, video-oculography)
Assay type: in vivo, human
Settings: for 8MWT: baseline 8.95 sec; for PATA: baseline 14.5; for 9HPTND: baseline 71.2 sec; for 9HPTD: baseline 85.38 sec
Text: For example, to evaluate overall neurological status, mDRS, a four-domain scale (ambulation, manipulation, language and swallowing), may be applied. Cerebellar function may be evaluated using SARA, an eight-item clinical rating scale (gait, stance, sitting, speech, fine motor function and taxis; range 0-40, where 0 is the best neurological status and 40 the worst), and SCAFI, comprising the 8-m-Walking-Time (8 MW; performed by having patients walking twice as quickly as possible from one line to another excluding turning), 9-Hole-Peg-Test (9HPT) and the number of “PATA” repetitions over 10 s. Subjective impairment and quality of life may be evaluated using the EQ-5D-5L questionnaire and VAS. To assess ocular motor function, 3-dimensional videooculography (EyeSeeCam) may be used to measure the peak velocity of saccades, gain of smooth pursuit, peak slow phase velocity of gaze-evoked nystagmus (gaze-holding function), peak slow phase velocity of optokinetic nystagmus, and gain of horizontal vestibulo-ocular reflex. To evaluate the cognitive state, WAIS-R or WISC-IV, and MoCA, assessing different cognitive domains, including attention and concentration, executive functions, memory, language, visuoconstructional skills, conceptual thinking, calculations, and orientation with a maximum of 30 points and a cut-off score of 26, may be used. The skilled person will know how to perform these and other such tests.
After one month of treatment, the patient was re-evaluated. […] Examination indicated a Scale for Assessment and Rating of Ataxia (SARA) score of 15.5/40. Results from the patient's Spinocerebellar Ataxia Functional Index (SCAFI) analysis were: • Mean 8-meters Walking Test (8 MW): 18.5 s • MW 9-Hole Pegboard Test Dominant (9HPTD) (right): 77.9 s • MW 9-Hole Pegboard Test Non-Dominant (9HPTND): 101.3 s • MW PATA Word Test: 13 • Visual analog scale (as evaluated by the patient): 85
After one month of treatment, the patient was re-evaluated. […] Examination indicated a Scale for Assessment and Rating of Ataxia (SARA) score of 23.5/40.
After slightly over 7 months of treatment, the patient was re-evaluated. […] Examination indicated a Scale for Assessment and Rating of Ataxia (SARA) score of 21.5/40.
After slightly over 1 month of treatment, the patient was re-evaluated. […] The patient also reported that drinking was easier and no longer needed a straw. […] Examination indicated a Scale for Assessment and Rating of Ataxia (SARA) score of 18.5/40.
After about 1 month of treatment, the patient was re-evaluated. […] On medication, they were able to walk with only holding the caregiver's hand.
The patient was evaluated after one month and six months of treatment, respectively. […] The patient, however, was suffering from anxiety, which would be expected to negatively influence the response.

[1] = ataxia telangiectasia Patient 1, after one month
[2] = ataxia telangiectasia Patient 1, after one month, Center
[3] = ataxia telangiectasia Patient 1, after one month, Down
[4] = ataxia telangiectasia Patient 1, after one month, Left
[5] = ataxia telangiectasia Patient 1, after one month, Right
[6] = ataxia telangiectasia Patient 1, after one month, Up
[7] = ataxia telangiectasia Patient 2, after one month
[8] = ataxia telangiectasia Patient 2, after one month, Center
[9] = ataxia telangiectasia Patient 2, after one month, Down
[10] = ataxia telangiectasia Patient 2, after one month, Left
[11] = ataxia telangiectasia Patient 2, after one month, Right
[12] = ataxia telangiectasia Patient 2, after one month, Up
[13] = ataxia telangiectasia Patient 3, after slightly over 7 months
[14] = ataxia telangiectasia Patient 3, after slightly over 7 months, Center
[15] = ataxia telangiectasia Patient 3, after slightly over 7 months, Down
[16] = ataxia telangiectasia Patient 3, after slightly over 7 months, Left
[17] = ataxia telangiectasia Patient 3, after slightly over 7 months, Right
[18] = ataxia telangiectasia Patient 4, after slightly over 1 month
[19] = ataxia telangiectasia Patient 4, after slightly over 1 month, Center
[20] = ataxia telangiectasia Patient 4, after slightly over 1 month, Down
[21] = ataxia telangiectasia Patient 4, after slightly over 1 month, Left
[22] = ataxia telangiectasia Patient 4, after slightly over 1 month, Right
[23] = ataxia telangiectasia Patient 5, after about 1 month
[24] = ataxia telangiectasia Patient 5, after about 1 month, Center
[25] = ataxia telangiectasia Patient 5, after about 1 month, Down
[26] = ataxia telangiectasia Patient 5, after about 1 month, Left
[27] = ataxia telangiectasia Patient 5, after about 1 month, Right
[28] = ataxia telangiectasia Patient 5, after about 1 month, Up
[29] = ataxia telangiectasia Patient 5, after almost 7 months
[30] = ataxia telangiectasia Patient 5, after slightly over a year
[31] = ataxia telangiectasia Patient 6, after one month
[32] = ataxia telangiectasia Patient 6, after six months

CC(=O)NC(CC(C)C)C(=O)O (racemic) [acetyl-DL-leucine]
Caregivers' report [1]: improvement of speech and gait
Video-oculography (summary) [1]: significant improvement of fixation stability and decrease of intensity of downbeat-nystagmus
Slow phase velocity of the gaze-holding nystagmus, Horizontal [2]: 0.4
Slow phase velocity of the gaze-holding nystagmus, Vertical [2]: 4.77
Slow phase velocity of the gaze-holding nystagmus, Horizontal [3]: −0.44
Slow phase velocity of the gaze-holding nystagmus, Vertical [3]: 5.29
Slow phase velocity of the gaze-holding nystagmus, Horizontal [4]: 8.2
Slow phase velocity of the gaze-holding nystagmus, Vertical [4]: 8.85
Slow phase velocity of the gaze-holding nystagmus, Horizontal [5]: −0.95
Slow phase velocity of the gaze-holding nystagmus, Vertical [5]: 4.83
Slow phase velocity of the gaze-holding nystagmus, Horizontal [6]: 0.72
Slow phase velocity of the gaze-holding nystagmus, Vertical [6]: 2.67
PATA Word Test (ataxia telangiectasia Patient 1, after one month, before 12.5): 13
Mean 8-meters Walking Test (8 MW) (ataxia telangiectasia Patient 1, after one month, before 21.8 s): 18.5 s
9-Hole Pegboard Test Dominant (9HPTD) (right) (ataxia telangiectasia Patient 1, after one month, before 90.2 s): 77.9 s
Visual analog scale (as evaluated by the patient) (ataxia telangiectasia Patient 1, after one month, before 99): 85
9-Hole Pegboard Test Non-Dominant (9HPTND) (ataxia telangiectasia Patient 1, after one month, before 125.8 s): 101.3 s
Caregivers' report [7]: improvement of fine motor function, hand tremor, and speech
Mean 8-meters Walking Test (8 MW) [7]: not able to perform without support
Video-oculography (summary) [7]: improvement of fixation stability and significant improvement of downbeat-nystagmus intensity
Slow phase velocity of the gaze-holding nystagmus, Horizontal [8]: −1.45
Slow phase velocity of the gaze-holding nystagmus, Vertical [8]: 5.6
Slow phase velocity of the gaze-holding nystagmus, Horizontal [9]: −2.5
Slow phase velocity of the gaze-holding nystagmus, Vertical [9]: 4.69
Slow phase velocity of the gaze-holding nystagmus, Horizontal [10]: 3.58
Slow phase velocity of the gaze-holding nystagmus, Vertical [10]: 7
Slow phase velocity of the gaze-holding nystagmus, Horizontal [11]: −3.45
Slow phase velocity of the gaze-holding nystagmus, Vertical [11]: 6.56
Slow phase velocity of the gaze-holding nystagmus, Horizontal [12]: −0.51
Slow phase velocity of the gaze-holding nystagmus, Vertical [12]: 3.15
PATA Word Test (ataxia telangiectasia Patient 2, after one month, before 13.5): 14
Visual analog scale (as evaluated by the patient) (ataxia telangiectasia Patient 2, after one month, before 45): 80
9-Hole Pegboard Test Non-Dominant (9HPTND) (ataxia telangiectasia Patient 2, after one month, before 299.2 s): 300 s
9-Hole Pegboard Test Dominant (9HPTD) (right) (ataxia telangiectasia Patient 2, after one month, before 300 s): 300 s
Caregivers' and patient's report [13]: general improvement of well-being
Mean 8-meters Walking Test (8 MW) [13]: not able to perform
Video-oculography (summary) [13]: significant improvement of fixation stability and decrease of intensity of gaze-holding nystagmus at all positions
Slow phase velocity of the gaze-holding nystagmus, Horizontal [14]: −0.1 °/s
Slow phase velocity of the gaze-holding nystagmus, Vertical [14]: 0.4 °/s
Slow phase velocity of the gaze-holding nystagmus, Horizontal [15]: −0.6 °/s
Slow phase velocity of the gaze-holding nystagmus, Vertical [15]: 1.2 °/s
Slow phase velocity of the gaze-holding nystagmus, Horizontal [16]: 1.7 °/s
Slow phase velocity of the gaze-holding nystagmus, Vertical [16]: 0.1 °/s
Slow phase velocity of the gaze-holding nystagmus, Horizontal [17]: −4.2 °/s
Slow phase velocity of the gaze-holding nystagmus, Vertical [17]: 1.7 °/s
PATA Word Test (ataxia telangiectasia Patient 3, after slightly over 7 months, before 14): 10
Visual analog scale (as evaluated by the patient) (ataxia telangiectasia Patient 3, after slightly over 7 months, before 80): 80
9-Hole Pegboard Test Dominant (9HPTD) (right) (ataxia telangiectasia Patient 3, after slightly over 7 months, before 150 s): 124.5 s
9-Hole Pegboard Test Non-Dominant (9HPTND) (ataxia telangiectasia Patient 3, after slightly over 7 months, before 161.6 s): 147.5 s
Mean 8-meters Walking Test (8 MW) [18]: not able to perform
Patient's and parent's report [18]: improvement in handwriting
Video-oculography (summary) [18]: general improvement of fixation stability and decrease of intensity of spontaneous and gaze-holding nystagmus at all positions
Slow phase velocity of the gaze-holding nystagmus, Horizontal [19]: −0.2 °/s
Slow phase velocity of the gaze-holding nystagmus, Vertical [19]: 4.8 °/s
Slow phase velocity of the gaze-holding nystagmus, Horizontal [20]: −0.7 °/s
Slow phase velocity of the gaze-holding nystagmus, Vertical [20]: −2.3 °/s
Slow phase velocity of the gaze-holding nystagmus, Horizontal [21]: −0.8 °/s
Slow phase velocity of the gaze-holding nystagmus, Vertical [21]: 1.9 °/s
Slow phase velocity of the gaze-holding nystagmus, Horizontal [22]: −1 °/s
Slow phase velocity of the gaze-holding nystagmus, Vertical [22]: 0.3 °/s
PATA Word Test (ataxia telangiectasia Patient 4, after slightly over 1 month, before 14): 15.5
9-Hole Pegboard Test Non-Dominant (9HPTND) (ataxia telangiectasia Patient 4, after slightly over 1 month, before 52.3 s): 101.7 s
Visual analog scale (as evaluated by the patient) (ataxia telangiectasia Patient 4, after slightly over 1 month, before 70): 70
9-Hole Pegboard Test Dominant (9HPTD) (right) (ataxia telangiectasia Patient 4, after slightly over 1 month, before 124.5 s): 93.5 s
Mother's report (ataxia telangiectasia Patient 5, 5 g/day, after about 1 month): significant improvement of stability of the gait
Mean 8-meters Walking Test (8 MW) [23]: not able to walk without support
Weight gained [23]: 1.5 kg
Slow-phase velocity (SPV) of fixation and gaze-holding nystagmus, Horizontal [24]: 0.79 °/s
Slow-phase velocity (SPV) of fixation and gaze-holding nystagmus, Vertical [24]: 3.54 °/s
Slow-phase velocity (SPV) of fixation and gaze-holding nystagmus, Horizontal [25]: 0.62 °/s
Slow-phase velocity (SPV) of fixation and gaze-holding nystagmus, Vertical [25]: 1.08 °/s
Slow-phase velocity (SPV) of fixation and gaze-holding nystagmus, Horizontal [26]: 1.22 °/s
Slow-phase velocity (SPV) of fixation and gaze-holding nystagmus, Vertical [26]: 2.53 °/s
Slow-phase velocity (SPV) of fixation and gaze-holding nystagmus, Horizontal [27]: 1.17 °/s
Slow-phase velocity (SPV) of fixation and gaze-holding nystagmus, Vertical [27]: 2.36 °/s
Slow-phase velocity (SPV) of fixation and gaze-holding nystagmus, Horizontal [28]: 0.33 °/s
Slow-phase velocity (SPV) of fixation and gaze-holding nystagmus, Vertical [28]: 1.71 °/s
PATA Word Test (ataxia telangiectasia Patient 5, after about 1 month, before 6): 7.5
Visual analog scale (as evaluated by the patient) (ataxia telangiectasia Patient 5, after about 1 month, before 90): 80
9-Hole Pegboard Test Dominant (9HPTD) (right) (ataxia telangiectasia Patient 5, after about 1 month, before 102.7 s): 103.6 s
9-Hole Pegboard Test Non-Dominant (9HPTND) (ataxia telangiectasia Patient 5, after about 1 month, before 116.8 s): 88.8 s
9-Hole Pegboard Test Dominant (9HPTD) (right) [29]: 92.4 s
9-Hole Pegboard Test Non-Dominant (9HPTND) [29]: 98.3 s
Further weight gained [29]: 3 kg
Mother's report [29]: significantly more stable gait
PATA Word Test [29]: 11
Visual analog scale (as evaluated by the patient) [29]: 100
Mean 8-meters Walking Test (8 MW) (ataxia telangiectasia Patient 5, after almost 7 months, holding of the hand): 15.3 s
9-Hole Pegboard Test Dominant (9HPTD) (right) [30]: 95.6 s
9-Hole Pegboard Test Non-Dominant (9HPTND) [30]: 127.6 s
Clinical observation [30]: improved social interaction, activity, and agility
PATA Word Test [30]: 14.5
Visual analog scale (as evaluated by the patient) [30]: 95
Mean 8-meters Walking Test (8 MW) (ataxia telangiectasia Patient 5, after slightly over a year, able to walk by themself, parent held hand): 13.9 s
Adverse observation (ataxia telangiectasia Patient 5, after slightly over a year, suspected infantile migraine): repeatedly occuring frontal localized pain with vomiting in the morning
Clinical observation [31]: increased fine motor skills with reduced hand tremor, improved postural stability and gait, increased enunciation, and increased self-confidence
8MWT [31]: 8.45 s
PATA [31]: 15.5
9HPTND [31]: 70.39 s
9HPTD [31]: 81.95 s
Clinical observation [32]: stable general conditions, stable gait and stance, and improved handwriting
8MWT [32]: 7.53 s
SARA (ataxia telangiectasia Patient 6, after six months, baseline 11/40): 11/40
PATA [32]: 13
9HPTND [32]: 80.32 s
9HPTD [32]: 136.27 s
